The values below come from patent US7901893B2, “NPC1L1 (NPC3) and methods of identifying ligands thereof” (Merck Sharp & Dohme Corp., priority 2004, dated 2011).

The target of the test is T1, rhesus brush border membrane vesicles (Macaca mulatta, UniProt A0MJA5).
T1 sequence (A0MJA5 1-1332): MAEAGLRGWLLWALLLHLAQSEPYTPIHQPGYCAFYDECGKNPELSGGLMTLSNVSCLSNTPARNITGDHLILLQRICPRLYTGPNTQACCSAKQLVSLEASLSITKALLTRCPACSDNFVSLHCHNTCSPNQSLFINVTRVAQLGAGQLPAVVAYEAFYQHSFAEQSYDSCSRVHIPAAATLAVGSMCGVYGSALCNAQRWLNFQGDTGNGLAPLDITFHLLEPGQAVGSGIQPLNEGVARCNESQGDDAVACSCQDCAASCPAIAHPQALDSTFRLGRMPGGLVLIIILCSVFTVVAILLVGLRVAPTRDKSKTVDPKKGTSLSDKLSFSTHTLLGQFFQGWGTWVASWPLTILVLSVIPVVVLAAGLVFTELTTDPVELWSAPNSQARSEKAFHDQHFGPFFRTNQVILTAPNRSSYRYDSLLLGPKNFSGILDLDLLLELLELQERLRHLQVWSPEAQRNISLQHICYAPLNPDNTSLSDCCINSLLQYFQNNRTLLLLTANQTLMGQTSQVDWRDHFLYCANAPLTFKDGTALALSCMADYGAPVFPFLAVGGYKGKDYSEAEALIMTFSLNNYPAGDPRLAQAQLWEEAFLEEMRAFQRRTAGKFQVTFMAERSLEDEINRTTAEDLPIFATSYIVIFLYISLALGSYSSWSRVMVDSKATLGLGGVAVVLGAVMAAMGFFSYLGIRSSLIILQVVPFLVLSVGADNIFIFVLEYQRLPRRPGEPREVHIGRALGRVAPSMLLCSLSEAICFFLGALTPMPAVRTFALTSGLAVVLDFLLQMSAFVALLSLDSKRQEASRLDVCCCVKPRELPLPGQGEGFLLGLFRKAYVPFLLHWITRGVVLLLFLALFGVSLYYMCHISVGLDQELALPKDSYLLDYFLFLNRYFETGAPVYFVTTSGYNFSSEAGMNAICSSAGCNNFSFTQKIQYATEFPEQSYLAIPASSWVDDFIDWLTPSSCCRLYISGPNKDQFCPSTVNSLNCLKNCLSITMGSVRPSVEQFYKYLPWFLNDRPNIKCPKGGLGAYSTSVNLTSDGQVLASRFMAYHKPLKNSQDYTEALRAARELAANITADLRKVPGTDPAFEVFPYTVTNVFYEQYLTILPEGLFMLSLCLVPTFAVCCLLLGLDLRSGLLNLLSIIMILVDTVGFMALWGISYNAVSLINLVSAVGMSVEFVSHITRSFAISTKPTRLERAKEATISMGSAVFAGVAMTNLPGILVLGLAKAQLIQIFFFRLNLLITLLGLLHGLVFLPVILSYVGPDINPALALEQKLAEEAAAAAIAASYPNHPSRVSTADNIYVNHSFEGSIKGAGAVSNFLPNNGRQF
Nature of the test: biochemical.

Structures are written as SMILES.

Experimental: The intestines from freshly sacrificed animals were cut into segments, perfused with ice-cold saline buffer (Buffer A: 26 mM NaHCO3, 0.96 mM NaH2PO4, 5 mM HEPES, 5.5 mM glucose, 117 mM NaCl, 5.4 mM KCl, pH=7.4), placed on cold glass plates, opened longitudinally, and the mucosa scraped with glass microscope slips. This mucosa could be used fresh or frozen with identical results. To prepare the membranes, the mucosal scrapings were resuspended in 20 volumes of cold buffer consisting of 300 mM D-mannitol, 5 mM EGTA, 12 mM Tris, pH 7.4 with HCl, and containing 0.1 mM PMSF and a 1% dilution of a protease inhibitor cocktail (set 1, Calbiochem). They were homogenized using a Polytron at medium speed on ice until inspection with a microscope indicated complete cell lysis. Then, solid MgCl2 was added slowly with stirring to a final concentration of 10 mM, and the solution was kept stirring on ice for 15 min. Cellular debris was removed by centrifugation for 15 min at 3,000 g, and the membranes were recovered by centrifugation for 60 min at 48,000 g. The membranes were further rinsed by re-suspension in a buffer containing 50 mM D-mannitol, 5 mM EGTA, and 2 mM Tris at pH 7.40, and centrifugation for 60 min at 48,000 g. The final pellet was resuspended in 120 mM NaCl and 20 mM Tris at pH 7.40 to a concentration of ˜10-20 mg protein/ml, aliquoted, frozen in liquid nitrogen, and stored at −80 C. The activity was stable indefinitely and could be freeze-thawed with minimal loss of activity.
Binding assay. Assays were conducted in 12×75 mm glass test tubes and total volume 20-100 ul. In general, frozen membranes were diluted in buffer A or buffer A containing 0.03% taurocholate and 0.05% digitonin to a final concentration of 0.02 to 5 mg/ml. […] Competing ligands were likewise added as DMSO solutions to give a total 2-10% organic solvent content. […] At least 2 components of buffer A, the bicarbonate and phosphate salts, were later found to be inconsequential and were routinely omitted.
Bound ligand was quantified by single-tube vacuum filtration using GF/C glass fiber filters. […] Filtration was accomplished by adding 2.5 ml of ice cold buffer (120 mM NaCl, 0.1% sodium cholate, and 20 mM MES at pH 6.70) to the assay tube, pouring the mixture through the filter, and then rinsing the tube and filter twice more with another 2×2.5 ml buffer. The filters were counted in 7 ml vials using Packard DM liquid scintillation fluid.
Data analysis. Data from saturation experiments were subjected to a Scatchard analysis, and linear regression was performed to yield the equilibrium dissociation constant (Kd) and maximum receptor concentration (Bmax). […] Data from competition experiments were analyzed and IC50 values determined from Hill plots of the binding data.

Compound `CS(=O)(=O)NCC#Cc1ccc(N2C(=O)[C@H](CC[C@H](O)c3ccc(F)cc3)[C@H]2c2ccc(O[C@@H]3O[C@H](C(=O)O)[C@@H](O)[C@H](O)[C@H]3O)cc2)cc1` [Compound 2, 4-[(2S,3R)-3-[(3S)-3 (4-fluorophenyl)-3-hydroxypropyl]-1-(4-{3-[(methylsulfonyl)amino]prop-1-yn-1-yl}phenyl)-4-oxoazetidin-2-yl]phenyl β-D-glucopyranosiduronic acid] displayed a Ki of 0.038 µM.

Compound `O=C(O)[C@H]1O[C@@H](Oc2ccc([C@@H]3[C@@H](CC[C@H](O)c4ccc(F)cc4)C(=O)N3c3ccc(F)cc3)cc2)[C@H](O)[C@@H](O)[C@@H]1O` [Compound 1, Ezetimibe glucuronide] came in with a Ki of 0.039 µM.
